Measurements from ChEMBL document CHEMBL1201862, “PubChem BioAssay data set” (2004).
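1) Cells in 96-well plates. 2) Compound, 48 h, 5 concentrations. 3) Linear interpolation between surrounding doses. 4) Unreached endpoint = highest concentration. GI50: concentration for 50% inhibition of growth.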 Active and inactive are the calls of the source. Cut-off read from the data, not from the text of the source: active = GI50 up to about 1.1 µM and inactive = higher.

How the values were obtained:
Assay in all cases: NCI-60 cell line screen, 48 h
786-0 = test system: 786-0
A498 = test system: A498
CAKI-1 = test system: CAKI-1
COLO 205 = test system: COLO 205
DU-145 = test system: DU-145
EKVX = test system: EKVX
LOX IMVI = test system: LOX IMVI
M14 = test system: M14
MDA-MB-231 = test system: MDA-MB-231
MDA-MB-435 = test system: MDA-MB-435
MOLT-4 = test system: MOLT-4
NCI-H226 = test system: NCI-H226
NCI-H23 = test system: NCI-H23
NCI/ADR-RES = test system: NCI/ADR-RES
RPMI-8226 = test system: RPMI-8226
SK-MEL-2 = test system: SK-MEL-2
SK-MEL-5 = test system: SK-MEL-5
SNB-19 = test system: SNB-19
SNB-75 = test system: SNB-75
SR = test system: SR

Row | SMILES | GI50 (786-0) | GI50 (A498) | GI50 (CAKI-1) | GI50 (COLO 205) | GI50 (DU-145) | GI50 (EKVX) | GI50 (LOX IMVI) | GI50 (M14) | GI50 (MDA-MB-231) | GI50 (MDA-MB-435) | GI50 (MOLT-4) | GI50 (NCI-H226) | GI50 (NCI-H23) | GI50 (NCI/ADR-RES) | GI50 (RPMI-8226) | GI50 (SK-MEL-2) | GI50 (SK-MEL-5) | GI50 (SNB-19) | GI50 (SNB-75) | GI50 (SR)
1 | N=C1N(c2ccccc2)C(=S)/C(=N/c2ccccc2)N1c1ccccc1 | 9.68 µM (inactive) | 17.7 µM (inactive) | 14.4 µM (inactive) | 3.3 µM (inactive) | 17.4 µM (inactive) | 21.1 µM (inactive) | 2.01 µM (inactive) | 9.46 µM (inactive) | 8.73 µM (inactive) | 1.92 µM (inactive) | 1.29 µM (inactive) | 20.2 µM (inactive) | 6.03 µM (inactive) | 18.4 µM (inactive) | 2.31 µM (inactive) | 5.89 µM (inactive) | 2.38 µM (inactive) | 16.6 µM (inactive) | 15.9 µM (inactive) | 2.58 µM (inactive)
2 | O=C1Oc2ccccc2C(=O)/C1=C1/C=C(c2ccccc2)SS1 | > 100 µM (inactive) | > 100 µM (inactive) | 49.2 µM (inactive) | 57.5 µM (inactive) | 85.5 µM (inactive) | > 100 µM (inactive) | 64.7 µM (inactive) | 43.8 µM (inactive) | 80.4 µM (inactive) | 48.9 µM (inactive) | 30.4 µM (inactive) | 24.3 µM (inactive) | > 100 µM (inactive) | 60.1 µM (inactive) | > 100 µM (inactive) | > 100 µM (inactive) | > 100 µM (inactive) | 81.8 µM (inactive) | > 100 µM (inactive) | 28.3 µM (inactive)
3 | CCC1CCN/C(=N/S(=O)(=O)c2cc(C)c(Cl)cc2S)N1 (stereo not drawn) | 33.5 µM (inactive) | > 100 µM (inactive) | 30 µM (inactive) | 39.2 µM (inactive) | 43.7 µM (inactive) | 32.5 µM (inactive) | 24.1 µM (inactive) | 35.7 µM (inactive) | 44.8 µM (inactive) | 22.9 µM (inactive) | 21.7 µM (inactive) | 26.7 µM (inactive) | – | 38.7 µM (inactive) | 24.2 µM (inactive) | 26.4 µM (inactive) | > 100 µM (inactive) | 30.2 µM (inactive) | 40 µM (inactive) | 35.4 µM (inactive)
4 | Cc1cc(Cc2c(C)c(C)c(Cc3cc(C)cc(C(C)(C)C)c3O)c(C)c2C)c(O)c(C(C)(C)C)c1 | > 100 µM (inactive) | > 100 µM (inactive) | > 100 µM (inactive) | > 100 µM (inactive) | > 100 µM (inactive) | > 100 µM (inactive) | > 100 µM (inactive) | > 100 µM (inactive) | > 100 µM (inactive) | > 100 µM (inactive) | 1.56 µM (inactive) | > 100 µM (inactive) | – | > 100 µM (inactive) | > 100 µM (inactive) | > 100 µM (inactive) | > 100 µM (inactive) | > 100 µM (inactive) | > 100 µM (inactive) | 1.21 µM (inactive)
5 | Clc1ccc(C2ON=C(c3ccccc3)N2C23CC4CC(CC(C4)C2)C3)cc1 (stereo not drawn) | > 10 µM (inactive) | > 10 µM (inactive) | > 10 µM (inactive) | > 10 µM (inactive) | > 10 µM (inactive) | > 10 µM (inactive) | > 10 µM (inactive) | > 10 µM (inactive) | > 10 µM (inactive) | > 10 µM (inactive) | 9.66 µM (inactive) | > 10 µM (inactive) | > 10 µM (inactive) | > 10 µM (inactive) | > 10 µM (inactive) | > 10 µM (inactive) | > 10 µM (inactive) | > 10 µM (inactive) | > 10 µM (inactive) | > 10 µM (inactive)
6 | C=C1CC(C)(c2ccc(Nc3nc4ccccc4c4occc34)cc2)OC1=O (stereo not drawn) | 2.16 µM (inactive) | 18.9 µM (inactive) | 15.8 µM (inactive) | 3.59 µM (inactive) | 8.13 µM (inactive) | 12.1 µM (inactive) | 1.95 µM (inactive) | 2 µM (inactive) | 1.75 µM (inactive) | 1.91 µM (inactive) | 1.82 µM (inactive) | < 0.01 µM (active) | 1.22 µM (inactive) | 4.44 µM (inactive) | 1.69 µM (inactive) | – | 5.09 µM (inactive) | 7.45 µM (inactive) | 1.92 µM (inactive) | 1.63 µM (inactive)
7 | c1ccc(C2C3=C(c4ccccc4CC3)N3c4cc5c(cc4=NC34CCCCC24)Nc2ccccc2N=5)cc1 (stereo not drawn) | 7.14 µM (inactive) | 7.38 µM (inactive) | > 10 µM (inactive) | > 10 µM (inactive) | > 10 µM (inactive) | > 10 µM (inactive) | 8.04 µM (inactive) | 6.61 µM (inactive) | 9.79 µM (inactive) | 7.28 µM (inactive) | 2.4 µM (inactive) | 6.58 µM (inactive) | 9.2 µM (inactive) | 6.79 µM (inactive) | 5.11 µM (inactive) | > 10 µM (inactive) | > 10 µM (inactive) | > 10 µM (inactive) | 9.27 µM (inactive) | 1.11 µM (active)
8 | Cc1ccc(Nc2nc(=S)[nH]c3[nH]ncc23)cc1 | > 100 µM (inactive) | 37 µM (inactive) | 58.1 µM (inactive) | 39.5 µM (inactive) | 85.5 µM (inactive) | > 100 µM (inactive) | 37.5 µM (inactive) | > 100 µM (inactive) | > 100 µM (inactive) | 39.8 µM (inactive) | > 100 µM (inactive) | > 100 µM (inactive) | 59.7 µM (inactive) | > 100 µM (inactive) | 24 µM (inactive) | 82.4 µM (inactive) | 37.6 µM (inactive) | > 100 µM (inactive) | > 100 µM (inactive) | 36.1 µM (inactive)
9 | Cc1ccc(Cc2nn(C)c(=O)n2-n2cccc2)cc1 | > 100 µM (inactive) | > 100 µM (inactive) | > 100 µM (inactive) | > 100 µM (inactive) | > 100 µM (inactive) | > 100 µM (inactive) | > 100 µM (inactive) | > 100 µM (inactive) | > 100 µM (inactive) | > 100 µM (inactive) | > 100 µM (inactive) | > 100 µM (inactive) | – | > 100 µM (inactive) | > 100 µM (inactive) | > 100 µM (inactive) | > 100 µM (inactive) | > 100 µM (inactive) | > 100 µM (inactive) | > 100 µM (inactive)
10 | CC(=O)C1(c2ccccc2)CCCN(C)CC1 (stereo not drawn) | – | > 100 µM (inactive) | > 100 µM (inactive) | > 100 µM (inactive) | > 100 µM (inactive) | – | > 100 µM (inactive) | > 100 µM (inactive) | > 100 µM (inactive) | > 100 µM (inactive) | > 100 µM (inactive) | > 100 µM (inactive) | > 100 µM (inactive) | > 100 µM (inactive) | > 100 µM (inactive) | > 100 µM (inactive) | > 100 µM (inactive) | > 100 µM (inactive) | > 100 µM (inactive) | > 100 µM (inactive)
11 | O=C1Oc2ccccc2N/C1=C/C(=O)c1ccc([N+](=O)[O-])cc1 | > 100 µM (inactive) | > 100 µM (inactive) | > 100 µM (inactive) | > 100 µM (inactive) | > 100 µM (inactive) | > 100 µM (inactive) | – | > 100 µM (inactive) | > 100 µM (inactive) | > 100 µM (inactive) | > 100 µM (inactive) | > 100 µM (inactive) | > 100 µM (inactive) | > 100 µM (inactive) | – | > 100 µM (inactive) | > 100 µM (inactive) | > 100 µM (inactive) | > 100 µM (inactive) | > 100 µM (inactive)
12 | COc1cc([C@@]23OC[C@@H]4[C@@H](OC[C@@H]42)c2cc4c(cc23)OCO4)cc(OC)c1OC | < 0.01 µM (active) | < 0.01 µM (active) | < 0.0157 µM (active) | < 0.01 µM (active) | < 0.01 µM (active) | – | < 0.01 µM (active) | < 0.01 µM (active) | < 0.01 µM (active) | < 0.01 µM (active) | < 0.01 µM (active) | < 0.01 µM (active) | < 0.01 µM (active) | < 0.01 µM (active) | – | < 0.01 µM (active) | < 0.01 µM (active) | < 0.01 µM (active) | < 0.01 µM (active) | < 0.01 µM (active)
13 | COc1ccccc1N1CCN(CCCN2C(C(=O)c3ccccc3)=C(O)c3c(C)cc(C)nc3S2(=O)=O)CC1 | 39.5 µM (inactive) | > 100 µM (inactive) | 79.6 µM (inactive) | 64 µM (inactive) | > 100 µM (inactive) | 37 µM (inactive) | 13.4 µM (inactive) | 90.4 µM (inactive) | > 100 µM (inactive) | > 100 µM (inactive) | 24.8 µM (inactive) | 0.867 µM (active) | > 100 µM (inactive) | 50.4 µM (inactive) | – | > 100 µM (inactive) | 51.9 µM (inactive) | 48.8 µM (inactive) | 5.87 µM (inactive) | 46.2 µM (inactive)
14 | COc1cccc(-c2cc(O)c3cccnc3n2)c1 | 0.165 µM (active) | 0.516 µM (active) | 0.0984 µM (active) | 0.0771 µM (active) | 0.556 µM (active) | – | 0.0867 µM (active) | 0.0575 µM (active) | 1.27 µM (inactive) | 0.0164 µM (active) | 0.221 µM (active) | 0.325 µM (active) | 0.204 µM (active) | 0.0617 µM (active) | 0.195 µM (active) | > 100 µM (inactive) | 0.0546 µM (active) | 0.213 µM (active) | 0.0857 µM (active) | 0.0614 µM (active)
